Results published in patent US9694072B2, “Methods for diagnosing and treating neuroendocrine cancer” (Trustees of Dartmouth College, priority 2005, dated 2017).
Where two headings read alike, the source gives them in different places.

Columns and labels:
DMS-53 cells = test: Cell growth/viability assay (Alamar Blue); type: cell-based, human; details: for effect on cell viability (in words): DMS-53, 48 hours, concentration range used
Description: (§3) Cultures of NCI-H345, NCI-H146, DMS-53 cells (classical cell lines), and NCI-H82 cells (variant cell line) were treated with 0.05% trypsin, washed in phosphate buffered saline (PBS)/glycine and plated onto 96-well plates at 10^4 cells/well in medium for 24 hours to provide time for rectifying possible damage to membrane proteins from the trypsinization. […] Fluorescent readings were taken at periods representing 24, 48, and 72 hours of incubation with antagonist using a Synergy HT Multi-Detection Microplate Reader and excitation/emission wavelengths of 530 nm and 590 nm. Cell viability was evaluated as % vehicle control at the corresponding incubation time.

[1] = tested on: NCI-H345 classical SCLC cells; test: Cell growth/viability assay (Alamar Blue)
Description: Cultures of NCI-H345, NCI-H146, DMS-53 cells (classical cell lines), and NCI-H82 cells (variant cell line) were treated with 0.05% trypsin, washed in phosphate buffered saline (PBS)/glycine and plated onto 96-well plates at 10^4 cells/well in medium for 24 hours to provide time for rectifying possible damage to membrane proteins from the trypsinization. The wells were washed and incubated with PBS/glycine containing albumin (1.25 mg/mL) in the presence or absence of different concentrations (25 μM-800 μM) of either the NMDAR 1 antagonists, Memantine or MK-801; or the NMDAR2B antagonists Ifenprodil and Ro 25-6981 (binders to the polyamine site), or the NMDAR2B antagonists L-701,252 and L-701,324 (binders to the glycine site), or vehicle; and Alamar Blue (1:10 dilution following manufacturer's recommendation). Fluorescent readings were taken at periods representing 24, 48, and 72 hours of incubation with antagonist using a Synergy HT Multi-Detection Microplate Reader and excitation/emission wavelengths of 530 nm and 590 nm. Cell viability was evaluated as % vehicle control at the corresponding incubation time.
This peptide domain is represented in that portion of the mRNA message sequenced by RT-PCR. For studies on cell proliferation, the IgGs of this antiserum were first isolated by precipitation with 50% saturated ammonium sulfate, and antibodies purified from these immunoglobulins by affinity chromatography using a column containing the peptide component of the above antigen coupled to SEPHAROSE (Friedmann, et al. (1994) supra; Keegan, et al. (2002) supra).

[2] = tested on: NCI-H82 variant SCLC cells; test: Cell growth/viability assay (Alamar Blue); type: cell-based, human; details: for IC50: read-out: IC50, cell viability; for Cell viability reduced to: NCI-H82, 24, 48, and 72 hours incubation
Description: as §3

[3] = tested on: NCI H82 variant small-cell cancer cell xenografts; test: NCI H82 xenografts treated with ifenprodil; type: in vivo, nu/nu mice
Description: Male nu/nu mice were injected subcutaneously with NCI H82 variant small-cell cancer cells (˜10^7 cells/mouse) representing recurrent disease, and tumors became obvious after 2-3 weeks, and commenced growing rapidly. Animals were divided into two groups.
In another set of experiments, NCI H82 tumors were pretreated with cyclophosphamide for three days (single dose of 75 mg/kg body weight) before a single daily dose of i.p. ifenprodil (2.5 mg/kg) commenced.

[4] = tested on: human LA-N-2 neuroblastoma cells; details: cited from earlier work
[5] = tested on: human LA-N2 neuroblastoma cells; details: in the presence of glycine; cited from earlier work
NCI-H146 cells = test: Cell growth/viability assay (Alamar Blue); type: cell-based, human
Description: as §3

[6] = tested on: MCF-7 breast cancer cells; test: Alamar Blue growth/proliferation study; type: cell-based, human; details: for effect on cell growth/proliferation (in words): MCF-7, in the presence of glycine over 24 hours
[7] = tested on: SKBr3 breast cancer cells; test: Alamar Blue growth/proliferation study; type: cell-based, human; details: for effect on cell growth/proliferation (in words): SKBr3, in the presence of glycine over 24 hours
Description: (§1) Results represent triplicate studies performed with Alamar Blue on LAN2 neuroblastoma, MCF-7 breast cancer, and SKBr3 breast cancer cells examining the growth influence of 1 mM glutamate in the presence of glycine over 24 hours.
(§2) Results represent triplicate studies performed with Alamar Blue on LAN2 neuroblastoma, MCF-7 breast cancer, and SKBr3 breast cancer cells examining the growth influence of 100 mM Mg^++ in the presence of glycine over 24 hours.

LAN2 neuroblastoma cells = test: Alamar Blue growth study; type: cell-based, human; details: LAN2, in the presence of glycine over 24 hours
Description: as §1, §2

[8] = Homo sapiens, NCI-H345, 48 h, read-out: IC50, cell viability
[9] = Homo sapiens, NCI-H345, read-out: IC50, cell viability
[10] = Homo sapiens, NCI-H82, 48 and 72 hours of incubation, Alamar Blue (figure legend)
[11] = Homo sapiens, NCI-H82, at 48 hours
[12] = 2.5 mg/kg once daily intraperitoneally

Q: Which results are given for `CC(C(O)c1ccc(O)cc1)N1CCC(Cc2ccccc2)CC1` (centres unmarked) [Ifenprodil]?
A: effect on cell viability (in words) (DMS-53 cells): smaller decreases; Cell viability reduced to [1]: about 10 % of control; IC50 [1, 8]: ~150 µM; IC50 [1, 9]: 150 to 200 µM; IC50 [2, 10]: 150 to 200 µM; IC50 [2, 11]: ~150 µM; Cell viability reduced to [2]: about 10 % of control; time tumors maintained sizes of less than their original size [3, 12]: ~10 days; tumor size by 2 weeks of treatment [3, 12]: < 2 times their original size; tumors first shrank to [3, 12]: ~80 % of their original size; tumor growth vs saline-treated control mice (in words) ([3]; ifenprodil alone): inhibits the growth; body weight compared to saline-treated animals ([3]; over 8 days of drug treatment): no change in body weight

Q: With `NC(=O)c1ccccc1C(=O)N[C@@H](CCC(=O)O)C(=O)O` [NPG, N-phthalamoyl-L-glutamic acid] as the compound, how does the Cell cytotoxicity increased ([4]; incubation at 0.1 mM) read?
A: 28%

Q: What about the Cell cytotoxicity increased ([4]; incubation at 1 mM) of the same compound?
A: 46%

Q: And the “inward sodium current increased” value [5]?
A: 1.5 ×

Q: For `CC12CC3CC(C)(C1)CC(N)(C3)C2` [memantine], which IC50 (DMS-53 cells; Homo sapiens, DMS-53, at 48 hours, read-out: IC50, cell viability) is on record?
A: 800 µM

Q: What about the “Cell viability reduced to” value [1] of the same compound?
A: about 10 % of control

Q: And the IC50 [1, 8]?
A: 80 to 130 µM

Q: And the IC50 [1, 9]?
A: 80 to 100 µM

Q: And the IC50 (NCI-H146 cells; Homo sapiens, NCI-H146, at 48 hours, read-out: IC50, cell viability)?
A: 400 µM

Q: What about the “Proliferation of MCF-7 Cells Percent Fluorescence Compared to Control” value ([6]; 100 μM, 24 Hours) of the same compound?
A: 92.86 ± 6.08%

Q: What about the “Proliferation of MCF-7 Cells Percent Fluorescence Compared to Control” value ([6]; 100 μM, 48 Hours) of the same compound?
A: 89.98 ± 5.30%

Q: And the “Proliferation of MCF-7 Cells Percent Fluorescence Compared to Control” value ([6]; 100 μM, 72 Hours)?
A: 88.48 ± 4.02%

Q: What about the “Proliferation of MCF-7 Cells Percent Fluorescence Compared to Control” value ([6]; 200 μM, 24 Hours) of the same compound?
A: 73.51 ± 5.64%

Q: What about the “Proliferation of MCF-7 Cells Percent Fluorescence Compared to Control” value ([6]; 200 μM, 48 Hours) of the same compound?
A: 49.78 ± 6.85%

Q: And the “Proliferation of MCF-7 Cells Percent Fluorescence Compared to Control” value ([6]; 200 μM, 72 Hours)?
A: 46.62 ± 7.04%

Q: And the “Proliferation of MCF-7 Cells Percent Fluorescence Compared to Control” value ([6]; 300 μM, 24 Hours)?
A: 48.81 ± 5.18%

Q: And the “Proliferation of MCF-7 Cells Percent Fluorescence Compared to Control” value ([6]; 300 μM, 48 Hours)?
A: 22.33 ± 5.21%

Q: And the “Proliferation of MCF-7 Cells Percent Fluorescence Compared to Control” value ([6]; 300 μM, 72 Hours)?
A: 20.02 ± 4.97%

Q: What about the “Proliferation of MCF-7 Cells Percent Fluorescence Compared to Control” value ([6]; 400 μM, 24 Hours) of the same compound?
A: 39.62 ± 5.21%

Q: And the “Proliferation of MCF-7 Cells Percent Fluorescence Compared to Control” value ([6]; 400 μM, 48 Hours)?
A: 15.79 ± 4.79%

Q: What about the “Proliferation of MCF-7 Cells Percent Fluorescence Compared to Control” value ([6]; 400 μM, 72 Hours) of the same compound?
A: 14.38 ± 3.92%

Q: And the “Proliferation of MCF-7 Cells Percent Fluorescence Compared to Control” value ([6]; 500 μM, 24 Hours)?
A: 38.40 ± 2.98%

Q: What about the “Proliferation of MCF-7 Cells Percent Fluorescence Compared to Control” value ([6]; 500 μM, 48 Hours) of the same compound?
A: 14.60 ± 3.21%

Q: And the “Proliferation of MCF-7 Cells Percent Fluorescence Compared to Control” value ([6]; 500 μM, 72 Hours)?
A: 13.40 ± 3.29%

Q: And the “Proliferation of MCF-7 Cells Percent Fluorescence Compared to Control” value ([6]; 600 μM, 24 Hours)?
A: 39.22 ± 4.13%

Q: What about the “Proliferation of MCF-7 Cells Percent Fluorescence Compared to Control” value ([6]; 600 μM, 48 Hours) of the same compound?
A: 15.10 ± 7.28%

Q: And the “Proliferation of MCF-7 Cells Percent Fluorescence Compared to Control” value ([6]; 600 μM, 72 Hours)?
A: 13.66 ± 6.62%

Q: What about the “Proliferation of MCF-7 Cells Percent Fluorescence Compared to Control” value ([6]; 700 μM, 24 Hours) of the same compound?
A: 32.80 ± 2.19%

Q: What about the “Proliferation of MCF-7 Cells Percent Fluorescence Compared to Control” value ([6]; 700 μM, 48 Hours) of the same compound?
A: 12.51 ± 2.35%

Q: And the “Proliferation of MCF-7 Cells Percent Fluorescence Compared to Control” value ([6]; 700 μM, 72 Hours)?
A: 11.89 ± 2.62%

Q: And the “Proliferation of MCF-7 Cells Percent Fluorescence Compared to Control” value ([6]; 800 μM, 24 Hours)?
A: 32.82 ± 2.44%

Q: What about the “Proliferation of MCF-7 Cells Percent Fluorescence Compared to Control” value ([6]; 800 μM, 48 Hours) of the same compound?
A: 12.34 ± 2.01%

Q: And the “Proliferation of MCF-7 Cells Percent Fluorescence Compared to Control” value ([6]; 800 μM, 72 Hours)?
A: 11.82 ± 2.25%

Q: What about the “Proliferation of MCF-7 Cells Percent Fluorescence Compared to Control” value ([6]; 900 μM, 24 Hours) of the same compound?
A: 32.23 ± 2.13%

Q: And the “Proliferation of MCF-7 Cells Percent Fluorescence Compared to Control” value ([6]; 900 μM, 48 Hours)?
A: 12.03 ± 2.15%

Q: And the “Proliferation of MCF-7 Cells Percent Fluorescence Compared to Control” value ([6]; 900 μM, 72 Hours)?
A: 11.57 ± 2.41%

Q: What about the “reduce proliferation by” value ([6]; MCF-7, 0.3 mM, 48 and 72 hours) of the same compound?
A: about 80%

Q: What about the “effect on proliferation (in words)” value ([6]; MCF-7, NMDAR1 antagonist treatment) of the same compound?
A: decreased the proliferation

Q: What about the IC50 [2, 10] of the same compound?
A: 80 to 100 µM

Q: What about the IC50 [2, 11] of the same compound?
A: 80 to 130 µM

Q: What about the “Cell viability reduced to” value [2] of the same compound?
A: about 10 % of control

Q: And the “effect on proliferation (in words)” value ([7]; SKBr3, NMDAR1 antagonist treatment)?
A: decreased the proliferation

Q: Which results are given for `N[C@@H](CCC(=O)O)C(=O)O` [glutamate, L-glutamic acid]?
A: Cell cytotoxicity increased ([4]; incubation at 1 mM): 27%; Cell cytotoxicity increased ([4]; incubation at 10 mM): 37%; effect on cell growth/proliferation (in words) [6]: increased proliferation; inward sodium current increased [5]: 1.5 ×; effect on cell growth/proliferation (in words) (LAN2 neuroblastoma cells): decreased cell growth; effect on cell growth/proliferation (in words) [7]: increased proliferation

Q: Which “effect on cell viability (in words)” value (DMS-53 cells; listed as Ro 25-698) does the source give for `CC(C(O)c1ccc(O)cc1)N1CCC(Cc2ccccc2)CC1` (centres unmarked) [Ro 25-6981] here?
A: no clear effects

Q: What about the IC50 ([1]; read-out: IC50, cell viability, NCI-H345, at 48 hours) of the same compound?
A: ~200 µM

Q: And the “effect on cell viability (in words)” value (NCI-H146 cells; NCI-H146, 48 hours, concentration range used)?
A: no clear effects

Q: And the IC50 ([2]; NCI-H82, at 48 hours)?
A: ~200 µM

Q: Which “effect on cell growth/proliferation (in words)” value [6] does the source give for `[Mg+2]` [magnesium] here?
A: significantly inhibited proliferation

Q: What about the “effect on cell growth/proliferation (in words)” value (LAN2 neuroblastoma cells) of the same compound?
A: significantly inhibited proliferation

Q: What about the “effect on cell growth/proliferation (in words)” value [7] of the same compound?
A: significantly inhibited proliferation

Q: For `O=c1[nH]c2cc(Cl)ccc2c(O)c1-c1cccc(Oc2ccccc2)c1` [L-701,324], which “increase in cell viability to” value ([1]; NCI-H345, at 48 hours) is on record?
A: approximately 140 % of control

Q: And the “increase in cell viability to” value ([2]; NCI-H82, at 48 hours)?
A: approximately 120 % of control
